Measured values from patent US20230104936A1, “TRPML MODULATORS” (Casma Therapeutics, Inc., priority 2019, published 2023).

Tested on: TFEB
Experiment: TFEB nuclear translocation assay, HeLa wt cells
Assay type: cell-based
Conditions: 2 hrs compound treatment, Table 1 does not say HeLa wt or TRPML1 KO
Procedure, shortened: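 TFEB translocation into the nucleus of HeLa wt cells is scored by high-content immunofluorescence after 2 hrs of compound treatment at 37° C, reported as AC50.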

CN(C)S(=O)(=O)c1ccc(S(=O)(=O)Nc2cccc(F)c2N2CCC(CN3CCC(F)(F)CC3)CC2)cc1 [Compound A-789, N4-(2-{4-[(4,4-difluoropiperidin-1-yl)methyl]piperidin-1-yl}-3-fluorophenyl)-N1,N1-dimethylbenzene-1,4-disulfonamide]
AC50 (Homo sapiens, HeLa, 2 h): ≤ 2000 nM

CCOCC1(C)CCN(c2ccccc2NS(=O)(=O)c2ccc(S(=O)(=O)N(C)C)cc2)CC1 [Compound A-719, N4-{2-[4-(ethoxymethyl)-4-methylpiperidin-1-yl]phenyl}-N1,N1-dimethylbenzene-1,4-disulfonamide]
AC50 (Homo sapiens, HeLa, 2 h): ≤ 2000 nM

CC(C)(C)C(=O)N1CCN(c2ccccc2NS(=O)(=O)c2ccc(C(F)F)cc2)CC1 [Compound A-529, 4-(difluoromethyl)-N-{2-[4-(2,2-dimethylpropanoyl)piperazin-1-yl]phenyl}benzene-1-sulfonamide]
AC50 (Homo sapiens, HeLa, 2 h): 2010 to 8000 nM

CC(C)(C)C(=O)N1CCN(c2ccccc2NS(=O)(=O)Cc2ccc3ccccc3c2)CC1 [Compound A-566, N-{2-[4-(2,2-dimethylpropanoyl)piperazin-1-yl]phenyl}-1-(naphthalen-2-yl)methanesulfonamide]
AC50 (Homo sapiens, HeLa, 2 h): 2010 to 8000 nM

CN(C)S(=O)(=O)c1ccc(S(=O)(=O)Nc2ccccc2N2CCC(COC(C)(F)F)CC2)cc1 [Compound A-739, N4-(2-{4-[(1,1-difluoroethoxy)methyl]piperidin-1-yl}phenyl)-N1,N1-dimethylbenzene-1,4-disulfonamide]
AC50 (Homo sapiens, HeLa, 2 h): ≤ 2000 nM

CN(C)S(=O)(=O)c1ccc(S(=O)(=O)Nc2ccccc2N2CC3(CN(c4ccc(Cl)cc4F)C3)C2)cc1 [Compound A-296, N1-(2-(6-(4-chloro-2-fluorophenyl)-2,6-diazaspiro[3.3]heptan-2-yl)phenyl)-N4,N4-dimethylbenzene-1,4-disulfonamide]
AC50 (Homo sapiens, HeLa, 2 h): 2010 to 8000 nM

CC(N1CCN(c2ccccc2NS(=O)(=O)c2ccc(S(C)(=O)=O)cc2)CC1)C(F)(F)F (centres unmarked) [Compound A-540, 4-methanesulfonyl-N-{2-[4-(1,1,1-trifluoropropan-2-yl)piperazin-1-yl]phenyl}benzene-1-sulfonamide]
AC50 (Homo sapiens, HeLa, 2 h): ≤ 2000 nM

CN(C)S(=O)(=O)c1ccc(S(=O)(=O)Nc2ccccc2N2CCC(O)(c3ncccc3F)CC2)cc1 [Compound A-355, N4-{2-[4-(3-fluoropyridin-2-yl)-4-hydroxypiperidin-1-yl]phenyl}-N1,N1-dimethylbenzene-1,4-disulfonamide]
AC50 (Homo sapiens, HeLa, 2 h): 2010 to 8000 nM

CN(C)S(=O)(=O)c1ccc(S(=O)(=O)Nc2ccccc2N2CCC3(CC2)CN(C(=O)OC2CCOC2)c2cc(F)ccc23)cc1 (centres unmarked) [Compound A-442, oxolan-3-yl 1′-{2-[4-(dimethylsulfamoyl)benzenesulfonamido]phenyl}-6-fluoro-1,2-dihydrospiro[indole-3,4′-piperidine]-1-carboxylate]
AC50 (Homo sapiens, HeLa, 2 h): ≤ 2000 nM

CC(c1cccc(F)c1N1CCC(CN2C3CCC2COC3)CC1)S(=O)(=O)c1ccc(S(C)(=O)=O)cc1 (single isomer, unassigned) [Compound A-913, 8-((1-(2-fluoro-6-(1-((4-(methylsulfonyl)phenyl)sulfonyl)ethyl)phenyl)piperidin-4-yl)methyl)-3-oxa-8-azabicyclo[3.2.1]octane]
AC50: ≤ 2000 nM

CN(C)S(=O)(=O)c1ccc(S(=O)(=O)n2nc(C3CCN(c4c(F)cccc4F)CC3)c3c2CCCC3)cc1 [Compound A-504, 4-({3-[1-(2,6-difluorophenyl)piperidin-4-yl]-4,5,6,7-tetrahydro-1H-indazol-1-yl}sulfonyl)-N,N-dimethylbenzene-1-sulfonamide]
AC50 (Homo sapiens, HeLa, 2 h): ≤ 2000 nM

CC1(C)Cc2cc(S(=O)(=O)Nc3ccccc3N3CCN(C(=O)C(C)(C)C)CC3)ccc2O1 [Compound A-514, N-{2-[4-(2,2-dimethylpropanoyl)piperazin-1-yl]phenyl}-2,2-dimethyl-2,3-dihydro-1-benzofuran-5-sulfonamide]
AC50 (Homo sapiens, HeLa, 2 h): ≤ 2000 nM

CC(c1cccc(F)c1N1CCCCC1)S(=O)(=O)c1ccc(S(=O)(=O)N(C)C)nn1 (centres unmarked) [Compound A-941, 6-{1-[3-fluoro-2-(piperidin-1-yl)phenyl]ethanesulfonyl}-N,N-dimethylpyridazine-3-sulfonamide]
AC50 (Homo sapiens, HeLa, 2 h): 2010 to 8000 nM

CCOCCC1CCN(c2ccccc2NS(=O)(=O)c2ccc(S(=O)(=O)N(C)C)cc2)CC1 [Compound A-498, N4-{2-[4-(2-ethoxyethyl)piperidin-1-yl]phenyl}-N1,N1-dimethylbenzene-1,4-disulfonamide]
AC50 (Homo sapiens, HeLa, 2 h): ≤ 2000 nM

C[C@@H]1CN(CC2CCN(c3c(F)cccc3NS(=O)(=O)C3(c4ccccc4)CC3)CC2)C[C@H](C)O1 [Compound A-767, N-[2-(4-{[(2R,6S)-2,6-dimethylmorpholin-4-yl]methyl}piperidin-1-yl)-3-fluorophenyl]-1-phenylcyclopropane-1-sulfonamide]
AC50 (Homo sapiens, HeLa, 2 h): ≤ 2000 nM

O=S(=O)(Nc1ccccc1N1CCOCC1)c1ccc2c(c1)CCC2 [Compound A-760, N-[2-(morpholin-4-yl)phenyl]-2,3-dihydro-1H-indene-5-sulfonamide]
AC50 (Homo sapiens, HeLa, 2 h): 2010 to 8000 nM

C[C@@H]1CN(c2ccccc2NS(=O)(=O)c2ccc(S(=O)(=O)N(C)C)cc2)C[C@H](C)N1c1ccc(Cl)cn1 [Compound A-121, N4-{2-[(3R,5S)-4-(5-chloropyridin-2-yl)-3,5-dimethylpiperazin-1-yl]phenyl}-N1,N1-dimethylbenzene-1,4-disulfonamide]
AC50 (Homo sapiens, HeLa, 2 h): ≤ 2000 nM

O=S(=O)(Nc1ccccc1N1CCC(c2c(F)cccc2F)CC1)c1ccc(S(=O)(=O)N2CCOCC2)cc1 [Compound A-217, N-{2-[4-(2,6-difluorophenyl)piperidin-1-yl]phenyl}-4-(morpholine-4-sulfonyl)benzene-1-sulfonamide]
AC50 (Homo sapiens, HeLa, 2 h): ≤ 2000 nM

CN(C)S(=O)(=O)c1ccc(S(=O)(=O)N(C)c2ccccc2N2CCC(c3ccc(Cl)cc3F)CC2)cc1 [Compound A-104, N1-{2-[4-(4-chloro-2-fluorophenyl)piperidin-1-yl]phenyl}-N1,N4,N4-trimethylbenzene-1,4-disulfonamide]
AC50 (Homo sapiens, HeLa, 2 h): ≤ 2000 nM

CN(C)S(=O)(=O)c1ccc(S(=O)(=O)n2c(=O)n(C3CCN(c4ccc(Cl)cc4F)CC3)c3ccccc32)cc1 [Compound A-63, 4-({3-[1-(4-chloro-2-fluorophenyl)piperidin-4-yl]-2-oxo-2,3-dihydro-1H-1,3-benzodiazol-1-yl}sulfonyl)-N,N-dimethylbenzene-1-sulfonamide]
AC50 (Homo sapiens, HeLa, 2 h): 2010 to 8000 nM

O=S(=O)(Nc1cc(Cl)ccc1N1CCC(c2c(F)cccc2F)CC1)c1ccc2c(c1)CCC2 [Compound A-292, N-{5-chloro-2-[4-(2,6-difluorophenyl)piperidin-1-yl]phenyl}-2,3-dihydro-1H-indene-5-sulfonamide]
AC50 (Homo sapiens, HeLa, 2 h): ≤ 2000 nM

CN(C)S(=O)(=O)c1ccc(S(=O)(=O)Nc2ccccc2N2CCC(c3ccccc3-c3nnn[nH]3)CC2)cc1 [Compound A-280, N1,N1-dimethyl-N4-(2-{4-[2-(1H-1,2,3,4-tetrazol-5-yl)phenyl]piperidin-1-yl}phenyl)benzene-1,4-disulfonamide]
AC50 (Homo sapiens, HeLa, 2 h): ≥ 10000 nM

COc1ccc(S(=O)(=O)Nc2ccccc2OCc2ccc(F)cc2F)cc1 [Compound A-187, N-(2-((2,4-difluorobenzyl)oxy)phenyl)-4-methoxybenzenesulfonamide]
AC50 (Homo sapiens, HeLa, 2 h): ≥ 10000 nM

CN(C)S(=O)(=O)c1ccc(S(=O)(=O)N(C)c2cc(F)ccc2N2CCC3(CC2)COC(C)(C)C3)cc1 [Compound A-728, N1-(2-{3,3-dimethyl-2-oxa-8-azaspiro[4.5]decan-8-yl}-5-fluorophenyl)-N1,N4,N4-trimethylbenzene-1,4-disulfonamide]
AC50 (Homo sapiens, HeLa, 2 h): 2010 to 8000 nM

CN(C)S(=O)(=O)c1ccc(S(=O)(=O)Nc2ccccc2N2CCN(C(=O)C3(C)CCCO3)CC2)cc1 (centres unmarked) [Compound A-476, N1,N1-dimethyl-N4-{2-[4-(2-methyloxolane-2-carbonyl)piperazin-1-yl]phenyl}benzene-1,4-disulfonamide]
AC50 (Homo sapiens, HeLa, 2 h): 2010 to 8000 nM

C#Cc1ccc(NS(=O)(=O)c2ccc(S(=O)(=O)N(C)C)cc2)c(N2CCCCC2)c1 [Compound A-812, N4-[4-ethynyl-2-(piperidin-1-yl)phenyl]-N1,N1-dimethylbenzene-1,4-disulfonamide]
AC50 (Homo sapiens, HeLa, 2 h): ≤ 2000 nM

COCC1(C)CCN(c2ccccc2C(C)S(=O)(=O)c2ccc(S(=O)(=O)N(C)C)cc2)CC1 (single isomer, unassigned; enantiomer 2) [Compound A-699, 4-((1-(2-(4-(methoxymethyl)-4-methylpiperidin-1-yl)phenyl)ethyl)sulfonyl)-N,N-dimethylbenzenesulfonamide, enantiomer 2]
AC50: 2010 to 8000 nM

Cc1nc(C)c(S(=O)(=O)Nc2ccccc2N2CCC(CN3C[C@@H](C)O[C@@H](C)C3)CC2)s1 [Compound A-756, N-[2-(4-{[(2R,6S)-2,6-dimethylmorpholin-4-yl]methyl}piperidin-1-yl)phenyl]-2,4-dimethyl-1,3-thiazole-5-sulfonamide]
AC50 (Homo sapiens, HeLa, 2 h): 2010 to 8000 nM

CN(C(=O)C1(C)CCN(c2ccccc2NS(=O)(=O)c2ccc(S(=O)(=O)N(C)C)cc2)CC1)C(C)(C)C [Compound A-360, N-tert-butyl-1-{2-[4-(dimethylsulfamoyl)benzenesulfonamido]phenyl}-N,4-dimethylpiperidine-4-carboxamide]
AC50 (Homo sapiens, HeLa, 2 h): ≤ 2000 nM

COc1ccc(S(=O)(=O)Nc2cccnc2N2CCN(c3ncc(Cl)cc3F)CC2)cc1 [Compound A-110, N-{2-[4-(5-chloro-3-fluoropyridin-2-yl)piperazin-1-yl]pyridin-3-yl}-4-methoxybenzene-1-sulfonamide]
AC50 (Homo sapiens, HeLa, 2 h): ≥ 10000 nM

CN(C)S(=O)(=O)c1ccc(S(=O)(=O)Nc2ccccc2N2CCC(C)(C3(O)CC3)CC2)cc1 [Compound A-558, N1-(2-(4-(1-hydroxycyclopropyl)-4-methylpiperidin-1-yl)phenyl)-N4,N4-dimethylbenzene-1,4-disulfonamide]
AC50 (Homo sapiens, HeLa, 2 h): 2010 to 8000 nM

CS(=O)(=O)c1ccc(S(=O)(=O)Nc2ccccc2N2CCC(c3ncc(F)cc3F)CC2)cc1 [Compound A-131, N-{2-[4-(3,5-difluoropyridin-2-yl)piperidin-1-yl]phenyl}-4-methanesulfonylbenzene-1-sulfonamide]
AC50 (Homo sapiens, HeLa, 2 h): ≤ 2000 nM
